The source of these data is patent US6875452B1, “Inhibitor and preservative formulation” (priority 1997, dated 2005).

In data set [1] the test system is Listeria monocytogenes 11994. Put plainly: Viable count of L. monocytogenes in TSB with plant oils, benzoic acid, methyl paraben and combinations (Experimental Procedure 1). In kind it is cell-based. The conditions noted are these: for log10 of the mean count: 37° C.; for inhibition of L. monocytogenes in words: over the 48 hr period. Here is the method: (§1) Listeria monocytogenes 11994 and Salmonella […] 4444 were purchased from the National Collection Type Culture, Porton Down, Wiltshire, UK. Each was stored in the long term in glycerol at -20° C., in the medium term on Tryptone Soya Agar (TSA) slopes and in the short term on TSA plates. All agar and broth (Tryptone Soya Broth) was purchased from Oxoid-Unipath Limited, Basingstoke, UK. […] Plates were incubated at 37° C. and colonies counted as colony forming units per ml (cfu/ml). […] Oils of fennel and […] used at 0.2% and whilst oil of basil was originally used for comparative purposes at 0.2% it was later used at 0.02%. […] Several factors were considered when choosing these concentrations. […] Triplicate plates were prepared for each dilution and the mean count of three plates was determined. […] Each experiment was performed on three separate occasions. It is the mean count from three separate experiments and the corresponding standard error of the mean which are shown in the results section. Two-tailed paired student's t-test was used to analyse inhibition caused by a combination compared to the corresponding control. Differences were judged to be statistically significant when p<0.05.

Data set [2] has as its system Salmonella enteriditis 4444. Put plainly: Viable count of S. enteriditis in TSB with plant oils, benzoic acid, methyl paraben and combinations (Experimental Procedure 1). In kind it is cell-based. The conditions noted are these: for log10 of the mean count: 37° C.; for inhibition of S. enteriditis in words: over the 48 hr period. Here is the method:
as §1

Data set [3] concerns Listeria monocytogenes 11994. Put plainly: Viable count of L. monocytogenes in TSB with trans-anethole, fenchone, estragole, methyl paraben and combinations (Experimental Procedure 2). The conditions noted are these: for log10 of the mean count ± 1 SEM: 37° C., preservatives at 0.1%; for inhibition of L. monocytogenes in words: 0.1%, over 48 hrs. The format is cell-based. Here is the method:
(§2) Listeria monocytogenes 11994 and Salmonella enteriditis 4444 were purchased from the National Collection Type Culture, Porton Down, Wiltshire, UK. Each was stored in the long term in glycerol at −20° C., in the medium term on Tryptone Soya Agar (TSA) slopes and in the short term on TSA plates. All agar and broth (Tryptone Soya Broth) was purchased from Oxoid-Unipath Limited, Basingstoke, UK.
(§3) Triplicate plates were prepared for each dilution and the mean count of three plates was determined. […] Each experiment was performed on three separate occasions.
(§4) Two-tailed paired student's t-test was used to analyse inhibition caused by a combination compared to the corresponding control. Differences were judged to be statistically significant when p<0.05.
(§5) This definition is also in agreement with Mims et al.
(§6) Corresponding controls were also prepared, thus 10 μl of each overnight culture was added to the appropriate broth only. All tubes were incubated at 37° C. 1 ml samples were removed from each test and control after vortexing at 0 hrs, 1 hr, 4 hrs, 8 hrs, 24 hrs and 48 hrs and serially diluted in 0.01M PBS. 100 μl from each dilution was placed on an agar plate and spread across the surface. Plates were incubated at 37° C. and colonies counted as colony forming units per ml (cfu/ml). As ethanol was used to prepare stock solutions of methyl paraben a diluent control was used where ethanol was added to each culture medium. […] Due to the limitation of the serial dilution technique it was not possible to count cfu less than 10/ml.
(§7) Furthermore to make valid comparison about the activity of each combination against each microbe it was necessary to use just one concentration of each component with the combination. […] In addition, methyl paraben cannot be used in food in excess of 0.1% [15].

Another data set relates to mice. The conditions noted are these: high doses, literature [22,23]; cited from earlier work.
For data set [4], the system named is Salmonella enteriditis 4444. Put plainly: Viable count of S. enteriditis in TSB with trans-anethole, fenchone, estragole, methyl paraben and combinations (Experimental Procedure 2). The format is cell-based. The conditions noted are these: for inhibition of S. enteriditis in words: 0.1%, over the 48 hr period; for log10 of the mean count ± 1 SEM: 37° C., preservatives at 0.1%. As to the method: as §2, §3, §4, §5, §6, §7

The conditions of data set [5]: literature [20,21]; cited from earlier work.
[6] abbreviates: 0 hrs (starting count, same as control).

Structures are written as SMILES. Some results are limits rather than exact numbers.

Take `O=C(O)c1ccccc1` [BA, benzoic acid]: the “log10 of the mean count” value in data set [1] (setting [6]) came to 6.45 ± 0.02 log10 cfu/ml; in data set [1] (1 hr), 6.33 ± 0.11 log10 cfu/ml; in data set [1] (4 hrs), 7.22 ± 0.04 log10 cfu/ml; in data set [1] (8 hrs), 8.16 ± 0.06 log10 cfu/ml; in data set [1] (24 hrs), 9.09 ± 0.03 log10 cfu/ml; in data set [1] (48 hrs), 9.0 ± 0.06 log10 cfu/ml. Further, the “log10 of the mean count” value in data set [2] (setting [6]) turned out to be 6.08 ± 0.03 log10 cfu/ml; in data set [2] (1 hr), 6.02 ± 0.04 log10 cfu/ml; in data set [2] (4 hrs), 6.46 ± 0.01 log10 cfu/ml; in data set [2] (8 hrs), 7.32 ± 0.08 log10 cfu/ml; in data set [2] (24 hrs), 8.67 ± 0.14 log10 cfu/ml; in data set [2] (48 hrs), 8.52 ± 0.03 log10 cfu/ml. For the same molecule, the “inhibition of L. monocytogenes in words” value in data set [1] is given as “relatively weakly inhibitory”. The “inhibition of S. enteriditis in words” value in data set [2] is on record as “little inhibition”.
Turning to `C=CCc1ccc(OC)cc1` [Estragole, estragole (4-allylanisole)], the “log10 of the mean count ± 1 SEM” value in data set [3] (1 hr) is on record as 5.9 ± 0.05 log10 cfu/ml; in data set [3] (4 hrs) it was 5.6 ± 0.07Δ log10 cfu/ml; in data set [3] (8 hrs), 5.5 ± 0.06Δ log10 cfu/ml; in data set [3] (24 hrs), 4.9 ± 0.08Δ log10 cfu/ml; in data set [3] (48 hrs), 4.7 ± 0.09Δ log10 cfu/ml; in data set [4] (1 hr), 2.2 ± 0.05Δ log10 cfu/ml. In addition, the “log10 of the mean count ± 1 SEM” value is recorded as 1.6 ± 0.08Δ log10 cfu/ml in data set [4] (4 hrs), 1.5 ± 0.08Δ log10 cfu/ml in data set [4] (8 hrs), 4.3 ± 0.03Δ log10 cfu/ml in data set [4] (24 hrs) and 6.9 ± 0.03Δ log10 cfu/ml in data set [4] (48 hrs). Further, the inhibition of growth entry in data set [3] (after 24 hrs) is reported as “more than 4 log10”. The carcinogenicity in words result with mice was “carcinogenic in high doses in mice”. Besides, the “inhibition of S. enteriditis in words” value in data set [4] was “two most single inhibitory preservatives”. Moreover, the “growth inhibited by” value in data set [4] (4 hrs and 8 hrs) is listed as “more than 5.0 log10”. For the same molecule, the inhibition in data set [4] (48 hrs) turned out to be 2.1 log10.
As to `CC12CCC(C1)C(C)(C)C2=O` (stereo not shown) [Fenchone, fenchone], in data set [3], the “inhibition of L. monocytogenes in words” value is reported as “most inhibitory single component”. Further, the “log10 of the mean count ± 1 SEM” value is given as 2.7 ± 0.2Δ log10 cfu/ml in data set [3] (1 hr); 1.9 ± 0.08Δ log10 cfu/ml in data set [3] (4 hrs); <1.0Δ log10 cfu/ml in data set [3] (8 hrs); <0.1Δ log10 cfu/ml in data set [3] (24 hrs); <1.0Δ log10 cfu/ml in data set [3] (48 hrs); 5.8 ± 0.02 log10 cfu/ml in data set [4] (1 hr). Also, the “log10 of the mean count ± 1 SEM” value in data set [4] (4 hrs) is listed as 6.4 ± 0.04 log10 cfu/ml; in data set [4] (8 hrs) it was 6.9 ± 0.04Δ log10 cfu/ml; in data set [4] (24 hrs), 8.6 ± 0.09Δ log10 cfu/ml; in data set [4] (48 hrs), 8.5 ± 0.01Δ log10 cfu/ml. For the same molecule, in data set [3] (8 hrs and above), the “count (cells undetectable)” value was less than 10 cfu/ml. In addition, the toxicity in words result in data set [5] is “non-toxic”. Moreover, in data set [4], the “inhibition of S. enteriditis in words” value is reported as “little or no inhibition”.
As for `COC(=O)c1ccc(O)cc1` [MP, methyl paraben], the “log10 of the mean count” value in data set [1] (setting [6]) was 6.45 ± 0.02 log10 cfu/ml; in data set [1] (1 hr) it was 6.49 ± 0.01 log10 cfu/ml; in data set [1] (4 hrs), 7.02 ± 0.02 log10 cfu/ml; in data set [1] (8 hrs), 7.86 ± 0.05 log10 cfu/ml; in data set [1] (24 hrs), 9.27 ± 0.02 log10 cfu/ml; in data set [1] (48 hrs) it was 9.24 ± 0.02 log10 cfu/ml. The “log10 of the mean count” value in data set [2] (setting [6]) is 6.08 ± 0.03 log10 cfu/ml; in data set [2] (1 hr), 6.04 ± 0.05 log10 cfu/ml; in data set [2] (4 hrs), 6.32 ± 0.03 log10 cfu/ml; in data set [2] (8 hrs), 6.63 ± 0.03 log10 cfu/ml; in data set [2] (24 hrs), 8.36 ± 0.05 log10 cfu/ml; in data set [2] (48 hrs), 8.45 ± 0.11 log10 cfu/ml. Also, the “inhibition of L. monocytogenes in words” value is “relatively weakly inhibitory” in data set [1] and “little or no inhibitory properties” in data set [3]. Also, the “log10 of the mean count ± 1 SEM” value in data set [3] (1 hr) stood at 6.5 ± 0.01 log10 cfu/ml; in data set [3] (4 hrs), 6.9 ± 0.01 log10 cfu/ml; in data set [3] (8 hrs), 7.7 ± 0.01 log10 cfu/ml; in data set [3] (24 hrs), 9.3 ± 0.01 log10 cfu/ml; in data set [3] (48 hrs) it was 9.2 ± 0.01 log10 cfu/ml; in data set [4] (1 hr), 6.0 ± 0.01 log10 cfu/ml. The “log10 of the mean count ± 1 SEM” value in data set [4] (4 hrs) was 6.3 ± 0.01 log10 cfu/ml; in data set [4] (8 hrs), 6.6 ± 0.06Δ log10 cfu/ml; in data set [4] (24 hrs), 8.5 ± 0.04Δ log10 cfu/ml; in data set [4] (48 hrs) it was 8.6 ± 0.01Δ log10 cfu/ml. In addition, the “inhibition of S. enteriditis in words” value is recorded as “little inhibition” in data set [2] and “little or no inhibition” in data set [4].
As for `C/C=C/c1ccc(OC)cc1` [Trans-anethole], the “inhibition of L. monocytogenes in words” value in data set [3] is listed as “little or no inhibitory properties”. Also, the “log10 of the mean count ± 1 SEM” value in data set [3] (1 hr) came to 6.1 ± 0.04 log10 cfu/ml; in data set [3] (4 hrs), 6.3 ± 0.1 log10 cfu/ml; in data set [3] (8 hrs), 6.7 ± 0.2 log10 cfu/ml; in data set [3] (24 hrs) it was 9.0 ± 0.1 log10 cfu/ml; in data set [3] (48 hrs) it was 9.0 ± 0.01 log10 cfu/ml. For the same molecule, in data set [5], the toxicity in words result was “non-toxic”.
